Reference: US20250313572A1, “MACROCYCLIC MCL-1 INHIBITORS AND METHODS OF USE” (AbbVie Inc., priority 2017, published 2025)
Read-outs that look alike come from different tables or passages of the source.

Columns and labels:
[1] = molecular target: GST-MCL-1 (Homo sapiens, UniProt Q07820); assay: TR-FRET MCL-1 binding assay (competition with probe F-Bak)
In short: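 Test compounds, 11 three-fold dilutions from 25 μM final, incubated 2 hours at room temperature with GST-MCL-1, F-Bak probe and Tb-anti-GST antibody. TR-FRET read at 340/35 nm excitation with 520/525 and 495/510 nm emission. Run without human serum and with 10% HS.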

[2] = tested on: NCI-H929 human multiple myeloma tumor cell line; assay: NCI-H929 cell viability assay (CellTiter-Glo, 24 hours); type: cell-based; details: Homo sapiens, NCI-H929, 24 h, read-out: H929 Viability IC50 (μM, 10% FBS), 10% FBS, 24 hours of compound treatment
Procedure: (§1) Each concentration was tested in duplicate at least 3 independent times. A luminescent signal proportional to the number of viable cells following 24 hours of compound treatment was determined using the CellTiter-Glo® Luminescent Cell Viability Assay according to the manufacturer's recommendations (Promega Corp., Madison, WI). The plates were read in a Perkin Elmer Envision using a Luminescence protocol. To generate dose response curves the data is normalized to percent viability by setting the averages of the staurosporine (10 μM) and DMSO only control wells to 0% and 100% viability respectively.

[3] = tested on: AMO-1 human multiple myeloma tumor cell line; assay: AMO-1 cell viability assay (CellTiter-Glo, 24 hours); type: cell-based; details: Homo sapiens, AMO1, 24 h, read-out: AMO-1 Viability IC50 (μM, 10% FBS), 10% FBS, 24 hours of compound treatment
Procedure: as §1

[4] = MCL-1 Binding Ki (nM, 10% HS), in the presence of 10% HS (human serum)
[5] = without HS, read-out: MCL-1 Binding Ki

GST-MCL-1, sequence (Q07820 whole entry): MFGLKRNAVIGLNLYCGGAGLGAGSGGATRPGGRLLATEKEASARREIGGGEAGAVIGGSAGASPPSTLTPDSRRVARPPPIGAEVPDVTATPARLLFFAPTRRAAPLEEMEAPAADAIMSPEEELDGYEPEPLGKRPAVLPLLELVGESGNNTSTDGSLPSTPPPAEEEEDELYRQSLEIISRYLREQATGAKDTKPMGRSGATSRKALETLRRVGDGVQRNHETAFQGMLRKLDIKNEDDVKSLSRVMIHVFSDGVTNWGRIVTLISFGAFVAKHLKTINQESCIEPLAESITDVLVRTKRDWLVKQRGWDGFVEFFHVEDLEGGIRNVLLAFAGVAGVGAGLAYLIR

SMILES | Ki [1, 4] [nM] | Ki [1, 5] [nM] | IC50 [2] [µM] | IC50 [3] [µM]
Cc1c(Cl)c2c(Cl)c(C)c1-c1c(-c3ccc(F)cc3)sc3ncnc(c13)O[C@@H](C(=O)O)Cc1cc(ccc1OCc1ccnc(N3CCC(CC(=O)O)CC3)n1)OC[C@@H](CN1CCN(C)CC1)O2 [Example 49, (7R,16R)-10-({2-[4-(carboxymethyl)piperidin-1-yl]pyrimidin-4-yl}methoxy)-19,23-dichloro-1-(4-fluorophenyl)-20,22-dimethyl-16-[(4-methylpiperazin-1-yl)methyl]-7,8,15,16-tetrahydro-18,21-etheno-13,9-(metheno)-6,14,17-trioxa-2-thia-3,5-diazacyclononadeca[1,2,3-cd]indene-7-carboxylic Acid] | 0.775 | 0.039 | 0.0431 | 0.0222
COCCOCCOCCOCCOCCOCCOCCOCCOCCOCCOCCC(=O)NCc1ccc(-c2nccc(COc3ccc4cc3C[C@H](C(=O)O)Oc3ncnc5sc(-c6ccc(F)cc6)c(c35)-c3c(C)c(Cl)c(c(Cl)c3C)O[C@H](CN3CCN(C)CC3)CO4)n2)cc1 [Example 50, (7R,16R)-19,23-dichloro-1-(4-fluorophenyl)-20,22-dimethyl-16-[(4-methylpiperazin-1-yl)methyl]-10-({2-[4-(35-oxo-2,5,8,11,14,17,20,23,26,29,32-undecaoxa-36-azaheptatriacontan-37-yl)phenyl]pyrimidin-4-yl}methoxy)-7,8,15,16-tetrahydro-18,21-etheno-13,9-(metheno)-6,14,17-trioxa-2-thia-3,5-diazacyclononadeca[1,2,3-cd]indene-7-carboxylic Acid] | 0.513 | 0.199 | 0.103 | 0.0676
Cc1c(Cl)c2c(Cl)c(C)c1-c1c(-c3ccc(F)cc3)sc3ncnc(c13)O[C@@H](C(=O)O)Cc1cc(ccc1OCc1ccnc(-c3cccc(CP(C)(C)=O)c3)n1)OC[C@@H](CN1CCN(C)CC1)O2 [Example 51, (7R,16R)-19,23-dichloro-10-[(2-{3-[(dimethylphosphoryl)methyl]phenyl}pyrimidin-4-yl)methoxy]-1-(4-fluorophenyl)-20,22-dimethyl-16-[(4-methylpiperazin-1-yl)methyl]-7,8,15,16-tetrahydro-18,21-etheno-13,9-(metheno)-6,14,17-trioxa-2-thia-3,5-diazacyclononadeca[1,2,3-cd]indene-7-carboxylic Acid] | 0.076 | 0.011 | 0.00671 | 0.0034
COCCOCCOCCC1CCN(c2nccc(COc3ccc4cc3C[C@H](C(=O)O)Oc3ncnc5sc(-c6ccc(F)cc6)c(c35)-c3c(C)c(Cl)c(c(Cl)c3C)O[C@H](CN3CCN(C)CC3)CO4)n2)CC1 [Example 52, (7R,16R)-19,23-dichloro-1-(4-fluorophenyl)-10-{[2-(4-{2-[2-(2-methoxyethoxy)ethoxy]ethyl}piperidin-1-yl)pyrimidin-4-yl]methoxy}-20,22-dimethyl-16-[(4-methylpiperazin-1-yl)methyl]-7,8,15,6-tetrahydro-18,21-etheno-9,13-(metheno)-6,14,17-trioxa-2-thia-3,5-diazacyclononadeca[1,2,3-cd]indene-7-carboxylic Acid] | 3.31 | 0.348 | 0.00269 | 0.000648
COCCOCCOCCOCCCN1CCN(c2nccc(COc3ccc4cc3C[C@H](C(=O)O)Oc3ncnc5sc(-c6ccc(F)cc6)c(c35)-c3c(C)c(Cl)c(c(Cl)c3C)O[C@H](CN3CCN(C)CC3)CO4)n2)CC1 [Example 53, (7R,16R)-19,23-dichloro-1-(4-fluorophenyl)-20,22-dimethyl-16-[(4-methylpiperazin-1-yl)methyl]-10-({2-[4-(2,5,8,11-tetraoxatetradecan-14-yl)piperazin-1-yl]pyrimidin-4-yl}methoxy)-7,8,15,16-tetrahydro-18,21-etheno-13,9-(metheno)-6,14,17-trioxa-2-thia-3,5-diazacyclononadeca[1,2,3-cd]indene-7-carboxylic Acid] | 0.632 | 0.301 | 0.00571 | 0.0042
COCCOCCOCCOCCOCCOCCOCCOc1ccc(-c2nccc(COc3ccc4cc3C[C@H](C(=O)O)Oc3ncnc5sc(-c6ccc(F)cc6)c(c35)-c3c(C)c(Cl)c(c(Cl)c3C)O[C@H](CN3CCN(C)CC3)CO4)n2)cc1 [Example 54, (7R,16R)-19,23-dichloro-1-(4-fluorophenyl)-10-[(2-{4-[(2,5,8,11,14,17,20-heptaoxadocosan-22-yl)oxy]phenyl}pyrimidin-4-yl)methoxy]-20,22-dimethyl-16-[(4-methylpiperazin-1-yl)methyl]-7,8,15,16-tetrahydro-18,21-etheno-13,9-(metheno)-6,14,17-trioxa-2-thia-3,5-diazacyclononadeca[1,2,3-cd]indene-7-carboxylic Acid] | 0.139 | 0.025 | 0.000771 | 0.000591
Cc1c2ccc(c1Cl)O[C@H](CN1CCN(C)CC1)COc1ccc(OCc3ccnc([C@H]4CCCN4C(=O)CCP(C)(C)=O)n3)c(c1)C[C@H](C(=O)O)Oc1ncnc3sc(-c4ccc(F)cc4)c-2c13 [Example 55, (7R,16R)-19-chloro-10-[(2-{(2R)-1-[3-(dimethylphosphoryl)propanoyl]pyrrolidin-2-yl}pyrimidin-4-yl)methoxy]-1-(4-fluorophenyl)-20-methyl-16-[(4-methylpiperazin-1-yl)methyl]-7,8,15,16-tetrahydro-18,21-etheno-13,9-(metheno)-6,14,17-trioxa-2-thia-3,5-diazacyclononadeca[1,2,3-cd]indene-7-carboxylic Acid] | 92.6 | 38.2 | > 1 | > 1
Cc1c(Cl)c2c(Cl)c(C)c1-c1c(-c3ccc(F)cc3)sc3ncnc(c13)O[C@@H](C(=O)O)Cc1cc(ccc1OCc1ccnc(N3C[C@H](O)[C@@H](O)C3)n1)OC[C@@H](CN1CCN(C)CC1)O2 [Example 56, (7R,16R)-19,23-dichloro-10-({2-[(3S,4S)-3,4-dihydroxypyrrolidin-1-yl]pyrimidin-4-yl}methoxy)-1-(4-fluorophenyl)-20,22-dimethyl-16-[(4-methylpiperazin-1-yl)methyl]-7,8,15,16-tetrahydro-18,21-etheno-13,9-(metheno)-6,14,17-trioxa-2-thia-3,5-diazacyclononadeca[1,2,3-cd]indene-7-carboxylic Acid] | 1.18 | 0.157 | 0.13 | 0.0534
COCCOCCOCCO[C@H]1CC[C@H](c2nccc(COc3ccc4cc3C[C@H](C(=O)O)Oc3ncnc5sc(-c6ccc(F)cc6)c(c35)-c3c(C)c(Cl)c(c(Cl)c3C)O[C@H](CN3CCN(C)CC3)CO4)n2)CC1 [Example 57, (7R,16R)-19,23-dichloro-1-(4-fluorophenyl)-10-({2-[(1r,4r)-4-{2-[2-(2-methoxyethoxy)ethoxy]ethoxy}cyclohexyl]pyrimidin-4-yl}methoxy)-20,22-dimethyl-16-[(4-methylpiperazin-1-yl)methyl]-7,8,15,16-tetrahydro-18,21-etheno-13,9-(metheno)-6,14,17-trioxa-2-thia-3,5-diazacyclononadeca[1,2,3-cd]indene-7-carboxylic Acid] | 0.072 | 0.013 | 0.00037 | 0.000244
COCCOCCOCCOCCOCC1(c2nccc(COc3ccc4cc3C[C@H](C(=O)O)Oc3ncnc5sc(-c6ccc(F)cc6)c(c35)-c3c(C)c(Cl)c(c(Cl)c3C)O[C@H](CN3CCN(C)CC3)CO4)n2)CCC1 [Example 58, (7R,16R)-19,23-dichloro-1-(4-fluorophenyl)-20,22-dimethyl-16-[(4-methylpiperazin-1-yl)methyl]-10-({2-[1-(2,5,8,11,14-pentaoxapentadecan-1-yl)cyclobutyl]pyrimidin-4-yl}methoxy)-7,8,15,16-tetrahydro-18,21-etheno-13,9-(metheno)-6,14,17-trioxa-2-thia-3,5-diazacyclononadeca[1,2,3-cd]indene-7-carboxylic Acid] | 0.161 | 0.05 | 0.00056 | 0.000378
COCCOCCOCCOCCOCCOCC1(c2nccc(COc3ccc4cc3C[C@H](C(=O)O)Oc3ncnc5sc(-c6ccc(F)cc6)c(c35)-c3c(C)c(Cl)c(c(Cl)c3C)O[C@H](CN3CCN(C)CC3)CO4)n2)CCC1 [Example 59, (7R,16R)-19,23-dichloro-1-(4-fluorophenyl)-10-({2-[1-(2,5,8,11,14,17-hexaoxaoctadecan-1-yl)cyclobutyl]pyrimidin-4-yl}methoxy)-20,22-dimethyl-16-[(4-methylpiperazin-1-yl)methyl]-7,8,15,16-tetrahydro-18,21-etheno-13,9-(metheno)-6,14,17-trioxa-2-thia-3,5-diazacyclononadeca[1,2,3-cd]indene-7-carboxylic Acid] | 0.122 | 0.047 | 0.000848 | 0.000686
COCCOCCOCCOCCOCCOCCOCC1(c2nccc(COc3ccc4cc3C[C@H](C(=O)O)Oc3ncnc5sc(-c6ccc(F)cc6)c(c35)-c3c(C)c(Cl)c(c(Cl)c3C)O[C@H](CN3CCN(C)CC3)CO4)n2)CCC1 [Example 60, (7R,16R)-19,23-dichloro-1-(4-fluorophenyl)-10-({2-[1-(2,5,8,11,14,17,20-heptaoxahenicosan-1-yl)cyclobutyl]pyrimidin-4-yl}methoxy)-20,22-dimethyl-16-[(4-methylpiperazin-1-yl)methyl]-7,8,15,16-tetrahydro-18,21-etheno-13,9-(metheno)-6,14,17-trioxa-2-thia-3,5-diazacyclononadeca[1,2,3-cd]indene-7-carboxylic Acid] | 0.125 | 0.042 | 0.00115 | 0.000987
